Laboratory results as given in patent publication US20260028326A1, “COMPOUND BASED ON ISOINDOLINE-SUBSTITUTED GLUTARIMIDE BACKBONE AND USE THEREOF” (GLUETACS THERAPEUTICS (SHANGHAI) CO., LTD., priority 2022, published 2026).

How the values were obtained:
[1] = target: GSPT1 protein (Homo sapiens (Human), UniProt P15170+Q96SW2); assay: Western-blot assay of substrate protein degradation in hPBMC, GSPT1; assay type: cell-based; details: for residual substrate protein level, GSPT1: hPBMC cells, compound 500 nM, 24 hours, Western blot
Chain of GSPT1 protein (P15170 whole entry): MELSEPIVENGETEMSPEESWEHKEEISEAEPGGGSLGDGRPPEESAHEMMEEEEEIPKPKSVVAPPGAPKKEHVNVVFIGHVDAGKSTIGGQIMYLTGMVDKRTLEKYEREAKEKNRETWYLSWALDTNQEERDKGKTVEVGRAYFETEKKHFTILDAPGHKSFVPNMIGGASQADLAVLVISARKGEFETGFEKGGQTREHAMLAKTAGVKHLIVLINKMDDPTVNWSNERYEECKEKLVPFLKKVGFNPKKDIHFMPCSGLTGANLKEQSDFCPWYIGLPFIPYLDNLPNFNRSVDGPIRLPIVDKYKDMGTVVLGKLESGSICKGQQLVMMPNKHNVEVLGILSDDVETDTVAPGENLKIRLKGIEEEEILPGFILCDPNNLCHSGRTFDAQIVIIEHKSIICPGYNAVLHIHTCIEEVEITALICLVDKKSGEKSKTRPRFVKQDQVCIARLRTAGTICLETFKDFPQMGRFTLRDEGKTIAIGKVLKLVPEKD
Chain of GSPT1 protein (Q96SW2 whole entry): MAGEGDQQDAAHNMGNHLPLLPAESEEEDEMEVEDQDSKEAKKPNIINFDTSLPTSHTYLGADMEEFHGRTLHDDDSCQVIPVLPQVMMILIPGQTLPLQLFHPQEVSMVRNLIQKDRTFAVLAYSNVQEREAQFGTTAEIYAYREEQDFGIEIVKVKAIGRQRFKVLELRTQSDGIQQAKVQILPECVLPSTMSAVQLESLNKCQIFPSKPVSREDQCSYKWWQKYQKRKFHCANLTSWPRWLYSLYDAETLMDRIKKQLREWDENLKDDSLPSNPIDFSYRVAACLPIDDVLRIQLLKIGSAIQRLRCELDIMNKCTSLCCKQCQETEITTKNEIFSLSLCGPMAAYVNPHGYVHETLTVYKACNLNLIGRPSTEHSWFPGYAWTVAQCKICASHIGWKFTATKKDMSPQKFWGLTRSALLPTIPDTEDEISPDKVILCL
Chain of GSPT1 protein (Q16531 whole entry partner): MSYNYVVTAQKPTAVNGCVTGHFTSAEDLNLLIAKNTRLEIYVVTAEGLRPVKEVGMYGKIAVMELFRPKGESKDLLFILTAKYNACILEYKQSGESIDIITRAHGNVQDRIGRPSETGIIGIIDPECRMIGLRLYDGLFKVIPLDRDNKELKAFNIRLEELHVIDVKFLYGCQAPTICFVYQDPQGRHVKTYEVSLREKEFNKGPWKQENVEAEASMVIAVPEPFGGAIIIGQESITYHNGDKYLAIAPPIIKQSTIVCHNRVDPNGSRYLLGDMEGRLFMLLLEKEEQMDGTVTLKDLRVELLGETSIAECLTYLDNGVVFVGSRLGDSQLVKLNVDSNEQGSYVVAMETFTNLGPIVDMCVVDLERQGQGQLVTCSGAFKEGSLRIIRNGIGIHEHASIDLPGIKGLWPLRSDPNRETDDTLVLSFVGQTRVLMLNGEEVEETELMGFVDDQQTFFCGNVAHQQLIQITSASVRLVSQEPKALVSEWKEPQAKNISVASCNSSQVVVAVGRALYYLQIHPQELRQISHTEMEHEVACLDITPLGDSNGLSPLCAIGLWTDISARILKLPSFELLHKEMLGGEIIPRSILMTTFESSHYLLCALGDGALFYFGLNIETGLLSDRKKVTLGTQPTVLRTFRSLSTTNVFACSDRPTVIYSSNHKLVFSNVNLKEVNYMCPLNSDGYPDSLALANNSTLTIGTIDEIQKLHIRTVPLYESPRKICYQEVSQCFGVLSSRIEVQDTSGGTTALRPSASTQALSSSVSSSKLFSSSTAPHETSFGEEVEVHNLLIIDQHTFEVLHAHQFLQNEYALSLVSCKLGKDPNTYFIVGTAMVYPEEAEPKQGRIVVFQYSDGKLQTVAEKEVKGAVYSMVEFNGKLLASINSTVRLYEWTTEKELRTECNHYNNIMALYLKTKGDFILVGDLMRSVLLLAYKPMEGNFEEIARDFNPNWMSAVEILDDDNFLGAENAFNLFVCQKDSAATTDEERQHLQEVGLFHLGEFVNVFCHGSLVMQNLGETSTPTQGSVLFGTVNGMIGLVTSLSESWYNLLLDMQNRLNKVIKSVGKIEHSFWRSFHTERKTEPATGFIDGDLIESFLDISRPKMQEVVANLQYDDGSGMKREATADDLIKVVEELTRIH

[2] = target: IKZF3 protein (Homo sapiens (Human), UniProt Q96SW2+Q9UKT9); assay: Western-blot assay of substrate protein degradation in hPBMC, IKZF3; assay type: cell-based; details: for residual substrate protein level, IKZF3: hPBMC cells, compound 500 nM, 24 hours, Western blot
Chain of IKZF3 protein (Q9UKT9 whole entry): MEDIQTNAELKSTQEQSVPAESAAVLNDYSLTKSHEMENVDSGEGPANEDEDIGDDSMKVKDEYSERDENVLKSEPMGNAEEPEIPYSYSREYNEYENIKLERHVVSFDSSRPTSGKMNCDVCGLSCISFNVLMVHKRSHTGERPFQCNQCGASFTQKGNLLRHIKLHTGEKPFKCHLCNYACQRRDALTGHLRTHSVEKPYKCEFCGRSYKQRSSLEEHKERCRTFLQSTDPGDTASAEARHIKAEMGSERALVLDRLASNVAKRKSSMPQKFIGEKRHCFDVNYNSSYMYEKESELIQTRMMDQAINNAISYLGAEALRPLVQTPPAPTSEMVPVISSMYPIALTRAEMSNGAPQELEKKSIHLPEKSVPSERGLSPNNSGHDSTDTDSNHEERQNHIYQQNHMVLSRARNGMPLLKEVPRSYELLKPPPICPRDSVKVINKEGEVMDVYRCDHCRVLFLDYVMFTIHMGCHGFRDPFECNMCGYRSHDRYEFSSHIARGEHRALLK
Chain of IKZF3 protein (Q96SW2 whole entry): as the sequence (Q96SW2 whole entry) above
Chain of IKZF3 protein (Q16531 whole entry partner): as the sequence (Q16531 whole entry partner) above

[3] = target: IKZF1 protein (Homo sapiens (Human), UniProt Q13422+Q96SW2); assay: Western-blot assay of substrate protein degradation in hPBMC, IKZF1; assay type: cell-based; details: for residual substrate protein level, IKZF1: hPBMC cells, compound 500 nM, 24 hours, Western blot
Chain of IKZF1 protein (Q13422 whole entry): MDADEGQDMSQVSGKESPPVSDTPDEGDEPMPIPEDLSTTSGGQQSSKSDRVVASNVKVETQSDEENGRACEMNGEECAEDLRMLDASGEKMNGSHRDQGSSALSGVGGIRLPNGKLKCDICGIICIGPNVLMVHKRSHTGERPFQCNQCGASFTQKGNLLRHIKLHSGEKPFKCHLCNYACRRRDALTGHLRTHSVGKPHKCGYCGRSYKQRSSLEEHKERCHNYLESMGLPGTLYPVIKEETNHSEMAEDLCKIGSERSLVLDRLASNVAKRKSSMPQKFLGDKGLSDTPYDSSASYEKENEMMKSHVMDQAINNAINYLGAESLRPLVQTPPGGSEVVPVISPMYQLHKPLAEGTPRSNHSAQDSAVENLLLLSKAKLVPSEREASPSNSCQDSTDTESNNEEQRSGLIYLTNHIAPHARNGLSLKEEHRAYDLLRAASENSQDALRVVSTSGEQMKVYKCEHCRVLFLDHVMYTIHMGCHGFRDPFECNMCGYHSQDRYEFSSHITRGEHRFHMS
Chain of IKZF1 protein (Q96SW2 whole entry): as the sequence (Q96SW2 whole entry) above
Chain of IKZF1 protein (Q16531 whole entry partner): as the sequence (Q16531 whole entry partner) above

[4] = test system: Mino cells; assay: Tumor cell proliferation IC50 (CCK-8), Mino; details: Homo sapiens, 72 h, read-out: IC50 for inhibiting the proliferation of tumor cells, Mino;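 further: cell viability assessed with CCK-8 reagent after compound exposure, IC50 derived from plotted growth inhibition curves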
Experimental: The tumor cells used herein were cultured in a cell culture medium listed in table A at 37° C. in an incubator with 5% CO2.
After the cells were treated with the compounds of the present disclosure for a period of time, the cell viability detection reagent was added to the culture medium for cell viability assessment according to the instructions provided with the CCK-8 kit. […] The growth inhibition of the compounds of the present disclosure on cells was plotted by Prism Graphpad software, and the IC50 values of the compounds of the present disclosure were calculated therefrom.

[5] = target: human Cereblon WT GST-tagged protein (Homo sapiens (Human), UniProt Q96SW2); assay: CRBN-binding affinity, HTRF (CEREBLON BINDING kit)
Chain of human Cereblon WT GST-tagged protein (Q96SW2 whole entry): as the sequence (Q96SW2 whole entry) above
How it was run: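 GST-tagged human WT Cereblon incubated with compound, then Thalidomide-Re tracer and anti-GST Eu antibody added. Displacement read by HTRF, reported as CRBN binding inhibition rate against blank control wells without protein.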

[6] = test system: MM.1S cells; assay: Tumor cell proliferation IC50 (CCK-8), MM.1S; details: Homo sapiens, MM1.S, 72 h, read-out: IC50 for inhibiting the proliferation of tumor cells, MM.1S;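 further: viability of cultured cells read by CCK-8 reagent after compound exposure, growth inhibition curves fitted to derive IC50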
[7] = hPBMC, 24 h, serially diluted 0.03-1000 nM

Row | SMILES | residual substrate protein level, GSPT1 [1] | residual substrate protein level, IKZF3 [2] | residual substrate protein level, IKZF1 [3] | IC50 [4] [nM] | IC50 [5] [nM] | IC50 [6] [nM] | concentration at which significant degradation effects on GSPT1 protein are exhibited (FIG. 1) [1, 7] [nM] | concentration at which significant degradation effects on IKZF3 protein are exhibited (FIG. 1) [2, 7] [nM] | concentration at which significant degradation effects on IKZF1 protein are exhibited (FIG. 1) [3, 7] [nM]
1 | O=C1CCC(N2Cc3cc(CN4CCN(Cc5ccc(-c6ccco6)o5)CC4)ccc3C2=O)C(=O)N1 (stereo not drawn) [GT-05695, 3-(5-((4-([2,2′-bifuran]-5-ylmethyl)piperazin-1-yl)methyl)-1-oxoisoindolin-2-yl)piperidine-2,6-dione] | B (B represents a residual substrate protein level of >50%) | A (A represents a residual substrate protein level of <50%) | A (A represents a residual substrate protein level of <50%) | 100 to 500 | 250 |  |  |  | 
2 | O=C1CCC(N2C(=O)c3ccc(CN4CCN(Cc5ccc(-c6ccncc6)nc5)CC4)cc3C2=O)C(=O)N1 (stereo not drawn) [GT-05634, 5-((4-([2,4′-bipyridin]-5-ylmethyl)piperazin-1-yl)methyl)-2-(2,6-dioxopiperidin-3-yl)isoindoline-1,3-dione] | B (B represents a residual substrate protein level of >50%) | A (A represents a residual substrate protein level of <50%) | A (A represents a residual substrate protein level of <50%) | 500 to 1000 |  |  |  |  | 
3 | O=C1CCC(N2C(=O)c3ccc(N4C5CCC4CN(Cc4ccccc4-c4ccc(Cl)cc4)C5)cc3C2=O)C(=O)N1 (stereo not drawn) [GT-05370, 5-(3-((4′-chloro-[1,1′-biphenyl]-2-yl)methyl)-3,8-diazabicyclo[3.2.1]octan-8-yl)-2-(2,6-dioxopiperidin-3-yl)isoindoline-1,3-dione] | A (A represents a residual substrate protein level of <50%) | A (A represents a residual substrate protein level of <50%) | B (B represents a residual substrate protein level of >50%) |  |  | < 5 |  |  | 
4 | CC1(C)CCC(CN2CC3(C2)CN(Cc2ccc4c(c2)CN(C2CCC(=O)NC2=O)C4=O)C3)=C(c2ccc(Cl)cc2)C1 (stereo not drawn) [GT-05685, 3-(5-((6-((4′-chloro-5,5-dimethyl-3,4,5,6-tetrahydro-[1,1′-biphenyl]-2-yl)methyl)-2,6-diazaspiro[3.3]heptan-2-yl)methyl)-1-oxoisoindolin-2-yl)piperidine-2,6-dione] |  |  |  | 100 to 500 | 1160 |  |  |  | 
5 | O=C1CCC(N2Cc3cc(CN4CCN(Cc5cccc(-c6ccc(Cl)cn6)c5)CC4)ccc3C2=O)C(=O)N1 (stereo not drawn) [GT-05596, 3-(5-((4-(3-(5-chloropyridin-2-yl)benzyl)piperazin-1-yl)methyl)-1-oxoisoindolin-2-yl)piperidine-2,6-dione] | B (B represents a residual substrate protein level of >50%) | A (A represents a residual substrate protein level of <50%) | A (A represents a residual substrate protein level of <50%) | 10 to 50 | 1340 |  | < 3 | < 3 | < 3
6 | O=C1CCC(N2Cc3cc(CN4CCN(Cc5ccc(-c6cccs6)o5)CC4)ccc3C2=O)C(=O)N1 (stereo not drawn) [GT-05627, 3-(1-oxo-5-((4-((5-(thiophen-2-yl)furan-2-yl)methyl)piperazin-1-yl)methyl)isoindolin-2-yl)piperidine-2,6-dione] |  |  |  | 100 to 500 | 260 |  |  |  | 
7 | O=C1CCC(N2C(=O)c3ccc(CN4CCN(Cc5cnc(-c6ccccc6)cn5)CC4)cc3C2=O)C(=O)N1 (stereo not drawn) [GT-05545, 2-(2,6-dioxopiperidin-3-yl)-5-((4-((5-phenylpyrazin-2-yl)methyl)piperazin-1-yl)methyl)isoindoline-1,3-dione] | B (B represents a residual substrate protein level of >50%) | A (A represents a residual substrate protein level of <50%) | B (B represents a residual substrate protein level of >50%) | 500 to 1000 |  |  |  |  | 
8 | O=C1CCC(N2Cc3cc(CN4CCN(Cc5cccc(-c6ccc(Cl)cc6)c5)CC4)ccc3C2=O)C(=O)N1 (stereo not drawn) [GT-05629, 3-(5-((4-((4′-chloro-[1,1′-biphenyl]-3-yl)methyl)piperazin-1-yl)methyl)-1-oxoisoindolin-2-yl)piperidine-2,6-dione] |  |  |  | 100 to 500 | 1280 |  |  |  | 
9 | O=C1CCC(N2Cc3cc(CN4CCN(Cc5cccc(-c6ccco6)c5)CC4)ccc3C2=O)C(=O)N1 (stereo not drawn) [GT-05692, 3-(5-((4-(3-(furan-2-yl)benzyl)piperazin-1-yl)methyl)-1-oxoisoindolin-2-yl)piperidine-2,6-dione] |  |  |  | 100 to 500 | 470 |  |  |  | 
10 | O=C1CCC(N2Cc3c(ccc(CN4C5CC4CN(Cc4ccccc4-c4ccc(Cl)cc4)C5)c3F)C2=O)C(=O)N1 (stereo not drawn) [GT-05608, 3-(5-((3-((4′-chloro-[1,1′-biphenyl]-2-yl)methyl)-3,6-diazabicyclo[3.1.1]heptan-6-yl)methyl)-4-fluoro-1-oxoisoindolin-2-yl)piperidine-2,6-dione] | A (A represents a residual substrate protein level of <50%) | A (A represents a residual substrate protein level of <50%) | B (B represents a residual substrate protein level of >50%) | 500 to 1000 | 800 |  |  |  | 
11 | O=C1CCC(N2Cc3cc(CN4CCN(Cc5ccc(-c6ccc[nH]6)cc5)CC4)ccc3C2=O)C(=O)N1 (stereo not drawn) [GT-05734, 3-(5-((4-(4-(1H-pyrrol-2-yl)benzyl)piperazin-1-yl)methyl)-1-oxoisoindolin-2-yl)piperidine-2,6-dione] | B (B represents a residual substrate protein level of >50%) | A (A represents a residual substrate protein level of <50%) | B (B represents a residual substrate protein level of >50%) | 100 to 500 | 110 |  |  |  | 
12 | CC1(C)CCC(C(=O)N2CC3CC2CN3Cc2ccc3c(c2)CN(C2CCC(=O)NC2=O)C3=O)=C(c2ccc(F)cc2)C1 (stereo not drawn) [GT-05403, 3-(5-((5-(4′-fluoro-5,5-dimethyl-3,4,5,6-tetrahydro-[1,1′-biphenyl]-2-carbonyl)-2,5-diazabicyclo[2.2.1]heptan-2-yl)methyl)-1-oxoisoindolin-2-yl)piperidine-2,6-dione] |  |  |  |  | 550 | 5 to 10 |  |  | 
13 | O=C1CCC(N2Cc3cc(CN4CCN(Cc5cccc(-c6cccs6)c5)CC4)ccc3C2=O)C(=O)N1 (stereo not drawn) [GT-05597, 3-(1-oxo-5-((4-(3-(thiophen-2-yl)benzyl)piperazin-1-yl)methyl)isoindolin-2-yl)piperidine-2,6-dione] |  |  |  | 100 to 500 | 1400 |  |  |  | 
14 | CC1(C)CCC(C(=O)N2CCC3(CC2)CN(Cc2ccc4c(c2)CN(C2CCC(=O)NC2=O)C4=O)C3)=C(c2ccc(F)cc2)C1 (stereo not drawn) [GT-05404, 3-(5-((7-(4′-fluoro-5,5-dimethyl-3,4,5,6-tetrahydro-[1,1′-biphenyl]-2-carbonyl)-2,7-diazaspiro[3.5]nonan-2-yl)methyl)-1-oxoisoindolin-2-yl)piperidine-2,6-dione] | B (B represents a residual substrate protein level of >50%) | A (A represents a residual substrate protein level of <50%) | B (B represents a residual substrate protein level of >50%) |  | 490 |  |  |  | 
15 | CC1(C)CCC(CN2C[C@@H]3C[C@H]2CN3Cc2ccc3c(c2)CN(C2CCC(=O)NC2=O)C3=O)=C(c2ccc(Cl)cc2)C1 (stereo partly drawn) [GT-03997, 3-(5-(((1S,4S)-5-((4′-chloro-5,5-dimethyl-3,4,5,6-tetrahydro-[1,1′-biphenyl]-2-yl)methyl)-2,5-diazabicyclo[2.2.1]heptan-2-yl)methyl)-1-oxoisoindolin-2-yl)piperidine-2,6-dione] | B (B represents a residual substrate protein level of >50%) | A (A represents a residual substrate protein level of <50%) | A (A represents a residual substrate protein level of <50%) |  | 770 |  |  |  | 
16 | O=C1CCC(N2Cc3cc(CN4CCN(Cc5ccncc5-c5ccc(Cl)cc5)CC4)ccc3C2=O)C(=O)N1 (stereo not drawn) [GT-04275, 3-(5-((4-((3-(4-chlorophenyl)pyridin-4-yl)methyl)piperazin-1-yl)methyl)-1-oxoisoindolin-2-yl)piperidine-2,6-dione] | A (A represents a residual substrate protein level of <50%) | A (A represents a residual substrate protein level of <50%) | A (A represents a residual substrate protein level of <50%) |  | 460 |  |  |  | 
17 | O=C1CCC(N2Cc3cc(CN4CCCN(C(=O)c5ccccc5-c5ccc(Cl)cc5)CC4)ccc3C2=O)C(=O)N1 (stereo not drawn) [GT-05644, 3-(5-((4-(4′-chloro-[1,1′-biphenyl]-2-carbonyl)-1,4-diazepan-1-yl)methyl)-1-oxoisoindolin-2-yl)piperidine-2,6-dione] | A (A represents a residual substrate protein level of <50%) | B (B represents a residual substrate protein level of >50%) | B (B represents a residual substrate protein level of >50%) |  | 590 |  |  |  | 
